{"source": "patent US11325943B2", "about": "“Crystalline salt forms of SBT-20” (priority 2017, dated 2022)", "key": {"[1]": {"conditions": "counter-ions studied during the initial salt screening; cited from earlier work"}, "[2]": {"assay": "Exposure of amorphous salts to humidity (saturated NaCl solution, 75% RH at room temperature) for stability assessment", "assay_type": "physicochemical", "conditions": "for behaviour on exposure to 75% RH: a week of exposure (repeat)", "excerpt": "Although amorphous, salts that were produced earlier were exposed to Humidity through saturated NaCl solution (75% RH at room temperature) for stability assessment.\nOther salts of SBT-020 that were made during the initial screening that were missing in Table 13 were exposed to 75% RH. The missing salts were Maleate, Salicylate, Tartarate (repeat), Succinate and Phosphate (repeat)."}, "[3]": {"assay": "Qualitative solubility in water", "assay_type": "physicochemical", "conditions": "at RT", "excerpt": "No signs of acetic acid were observed."}}, "note": "Where two headings read alike, the source gives them in different places. Non-standard residues stand in square brackets, D forms with d. Residues, ends and D or L forms follow the SMILES beside them."}
{"molecule": "O=S(=O)(O)c1ccccc1", "note": "[Benzene sulfonic acid]", "values": [{"measurement": "pKa1", "setting": "[1]", "value": "−2.8"}]}
{"molecule": "Br", "note": "[Hydrobromic acid]", "values": [{"measurement": "pKa1", "setting": "[1]", "value": "−8"}]}
{"molecule": "O=C(O)CC(O)C(=O)O", "note": "(stereo not shown) [Malic acid]", "values": [{"measurement": "pKa1", "setting": "[1]", "value": 3.4}, {"measurement": "pKa2", "setting": "[1]", "value": 5.2}]}
{"molecule": "N=C(N)NCCC[C@@H](NC(=O)[C@@H](N)Cc1ccccc1)C(=O)N[C@@H](Cc1ccccc1)C(=O)N[C@@H](CCCCN)C(N)=O", "note": "[Tosylate] (H-F[dR]FK-NH2)", "values": [{"measurement": "physical stability upon humidity exposure", "setting": "[2]; saturated NaCl solution, 75% RH at room temperature, amorphous salts", "value": "demonstrated physical stability upon humidity exposure"}, {"measurement": "physical stability upon humidity exposure", "setting": "[2]; saturated NaCl solution, 75% RH at room temperature, amorphous salts, listed as tosylate", "value": "best stability under humidity exposure"}, {"measurement": "solubility", "setting": "[3]", "value": "> 100", "unit": "mg/mL"}]}
{"molecule": "Phosphate", "values": [{"measurement": "physical stability upon humidity exposure", "setting": "[2]", "value": "demonstrated physical stability upon humidity exposure"}, {"measurement": "behaviour on exposure to 75% RH", "setting": "[2]", "value": "became wet, though they did not deliquesce even after a week"}]}
{"molecule": "Tartarate", "values": [{"measurement": "behaviour on exposure to 75% RH", "setting": "[2]", "value": "became wet, though they did not deliquesce even after a week"}]}
